Laboratory results: patent US10285939B2, “Means and methods for ocular drug delivery” (Eberhard Karls Universität Tübingen Medizinische Fakultät, priority 2013, dated 2019)
[C12U] = 2'-deoxyuridine carrying a dodecyne (lipid) modification

How the values were obtained:
[1] = In-vitro adhesion to porcine eye; details: NPs 20 μM, 15 minutes incubation, thoroughly washed in PBS
Method: In order to further gauge the adherence of different nanoparticles (NPs) to the eye surface, porcine eyes were obtained from the local slaughterhouse and exposed to the different NPs. The NPs were prepared as described in example 1, section 1.2, at a concentration of 20 μM. The porcine eye was transferred to a 6-well plate and 2 rings of different diameter were placed on top of the cornea to prevent spillage of the NP solution. Subsequently, 50 μl of NP solution was put on top of the cornea and incubated for 15 minutes. Afterwards, the rings were removed using tweezers and the eyes were thoroughly washed in PBS (PAA, Germany). The eye was divided into two along the visual axis. Of the two halves one was stored in formaldehyde, whereas the other was frozen in Tissue Tek, cut on a cryostat, stained with DAPI and photographed as described in example 1. To determine the binding capabilities of the NPs, they were exposed to porcine eyes obtained from the local slaughterhouse. For comparison the NPs from example 1 were included in the experiments. After 15 minutes of incubation with the NPs, the porcine eye was thoroughly washed in PBS buffer and frozen in tissue tek. The adhesion to the cornea was evaluated by fluorescence microscopy (See FIG. 8).

[2] = tested on: corneal epithelium of living rats; assay: Adhesion of fluorescently labelled DNA amphiphile NP eye drops to the cornea of living rats; type: in vivo, rat; details: for Number of NP positive eyes out of total number eyes: 20 μM, conscious rats; for adhesion to the cornea (fluorescence images of cryo sections): in-vivo rat eye
Method: Adult Lister Hooded Rats were obtained from Harlan Winkelmann, Germany. For the eye drop applications the conscious rats were very shortly fixated and a drop was administered to the eye using a single drop device as in medical applications. Blinking of the eyes was not hindered during drop application or afterwards. After the designated incubation time-point the rat were sacrificed with carbon dioxide inhalation.
After the predetermined time point the animal was sacrificed and the eyes were enucleated and frozen in Tissue-Tek O.C.T. (Sakura Finetek, Germany) in liquid nitrogen. Frozen sections were longitudinally cut (12 μm) on a cryostat (Leica CM 1900, Germany), thaw-mounted onto glass slides (Superfrost plus, R. Langenbrinck Labor- and Medizintechnik, Germany) and stored at −30° C. until further use. Further processing was performed using standard procedures. Briefly, for visualisation sections were fixed with methanol and to stain nuclei, sections were further incubated in a solution containing 0.2 μg/ml 4′,6-diamidino-2-phenylindol (DAPI) for 1 min. Stained sections were embedded in FluorSave (Calbiochem, Germany) and imaged using a fluorescent microscope (Axioplan2 Imaging®, Zeiss, Germany with the Openlab software, Improvision, Germany).^33 Animals were treated according to the Principles of laboratory animal care (NIH publication No. 85-23, revised 1985), the OPRR Public Health Service Policy on the Human Care and Use of Laboratory Animals (revised 1986) and the German animal protection law (Research permission AK3/11 to S.S.)
The eye drops containing the different fluorescently labelled DNA amphiphiles at a concentration of 20 μM were administered to conscious rats using a single drop of 30 μL and 30 min, 2 or 24 h after application the animals were sacrificed. Cryo sections of the treated eyes were prepared and imaged using fluorescence microscopy. As controls, single stranded (ss) and double stranded (ds) DNA lacking the lipid-modified nucleotide were administered as eye drops in the same fashion. Selection of the best carrier was performed by comparing the number of DNA amphiphile stained eyes to the total number of eyes to which eye drops were given and, in the case of an equal amount of positives, by visual comparison of the cryo sections (see Table 3).
After selection of U4T-12 as the best carrier, the adherence time on the cornea was evaluated (see FIG. 3). The NPs of U4T-12 are already observed 5 min after application of the eye drops, thus showing a fast adherence to the cornea. Then the NPs are present for a period of at least four hours because distinct green fluorescence of the carrier was clearly visible. […] After these successful proof-of-concept experiments we applied U4T-12 aptamer-functionalized carriers loaded with neomycinB or kanamycinB because these two antibiotics are currently used for treatment of ophthalmic indications. For localization of the drug loaded carrier the aptamer was functionalized with a red fluorescent dye at the 5′ end. The eye drops were administered as described earlier and the adherence to the cornea was studied 5, 15 and 30 minutes after application (see FIG. 4).

[3] = 30 min after a single 30 μL eye drop
[4] = 2 hours after a single 30 μL eye drop
[5] = 24 hours after a single 30 μL eye drop
[6] = rat, eye drops, green fluorescence of the carrier

Substance | adherence to the porcine cornea (fluorescence microscopy) [1] | Number of NP positive eyes out of total number eyes [2, 3] | Number of NP positive eyes out of total number eyes [2, 4] | Number of NP positive eyes out of total number eyes [2, 5] | adhesion to the cornea (fluorescence images of cryo sections) ([2]; eye drops) | adherence time on the cornea (period NPs are present) [2, 6] | time after application of the eye drops at which NPs are already observed on the cornea [2, 6] [min]
U2M-12: amphiphile with sequence TCCUUGGCGCAG, lipid modified nucleotides situated inside the chain (lipid-modified nucleotides inside the chain, which positions not given here, further chemistry not given here) | hardly any adherence | – | – | – | – | – | –
U2T-12: lipid modified oligonucleotide UUTGGCGGATTC (5′→3′), U = dodecyne modified deoxyuridine; forms micellar NPs (DNA, [C12U] at 1, 2, backbone and methylation of C not given here; forms micellar nanoparticles) | – | 2/4 | 0/4 | 0/4 | adhere significantly less | – | –
U4T-12: lipid modified oligonucleotide UUUUGCGGATTC (5′→3′), U = dodecyne modified deoxyuridine; forms micellar NPs (DNA, [C12U] at 1, 2, 3, 4, backbone and methylation of C not given here; forms micellar nanoparticles) | good adherence | 6/6 | 4/6 | 0/4 | best attachment | at least four | ≤ 5
U4T-18: lipid modified oligonucleotide UUUUGCGGATTCGTCTGC (5′→3′), U = dodecyne modified deoxyuridine (DNA, [C12U] at 1, 2, 3, 4, backbone and methylation of C not given here) | – | 4/5 | 0/4 | 0/4 | – | – | –
U6T-12: lipid modified oligonucleotide UUUUUUGGATTC (5′→3′), U = dodecyne modified deoxyuridine (DNA, [C12U] at 1, 2, 3, 4, 5, 6, backbone and methylation of C not given here) | – | 3/3 | 1/4 | 0/1 | adhere significantly less | – | –
U6T-20: lipid modified oligonucleotide UUUUUUGCGGATTCGTCTGC (5′→3′), U = dodecyne modified deoxyuridine (DNA, [C12U] at 1, 2, 3, 4, 5, 6, backbone and methylation of C not given here) | – | 2/2 | 1/3 | 0/3 | – | – | –
